Data: paper PMC7604625, “Glycolysis regulates Hedgehog signalling via the plasma membrane potential” (The EMBO Journal, 2020)

Legend:
[1] = tested on: PAC-NAE uptake into wing discs; test: Lipophorin-mediated PAC-NAE uptake in wing discs; assay type: cell-based, Drosophila
Description: The isolation procedure of Lipophorin (Lpp) particles was adapted from Panakova et al (2005). Briefly, 10 ml feeding third‐instar larvae were first washed with water and then with TNE buffer (100 mM Tris–HCl pH 7.5, 150 mM NaCl, 0.2 mM EGTA, cOmplete™ protease inhibitor cocktail (Roche, #000000011697498001)). All following steps were conducted at 4 °C (unless stated otherwise). Larvae were homogenized in TNE buffer in a tissue grinder with a loose pestle, and the homogenate was centrifuged for 10 min at 1,000 × g and afterwards for 3 h at 142,000 × g. The resulting supernatant (10 ml) was mixed with 40 μl 10 mM PAC‐NAE (EtOH solution) and sonicated for 5 min. […]
Only ring glands and wing discs that were processed in parallel, imaged using the same microscope settings, and properly mounted were used for quantifications. For quantification of immunohistochemical staining of CD8::GFP in ring glands, the mean pixel intensity of two regions of interest of 25 × 25 μm per ring gland was determined using ROI manager, and the average of these was used for the statistical analysis. For quantification of compartment size, wing disc folds served as morphological landmarks to outline the region of the wing pouch and the D/V boundary. The area of dorsal and ventral compartment was then determined using ROI manager. […] The A/P boundary was determined according to anti‐Ci155 or anti‐Ptc co‐immunostaining. […]

[2] = tested on: ATP levels in ubi-AT1.03NL wing discs; test: Measurement of ATP using FRET-based ATP sensor AT1.03NL in explanted wing discs; assay type: cell-based, Drosophila; conditions: explanted wing discs treated with antimycin A for 2 h
Description: Wing discs from up‐crawling third‐instar larvae were dissected within 10 min in Grace's medium supplemented with 5% FBS and 20 nM 20‐hydroxyecdysone (Dye et al, 2017). Dissected wing discs were mounted with their basal side up on glass‐bottom dishes (MatTek Corporation, #P35G‐1.0‐20‐C) with a double‐sided tape spacer and immobilized with a Whatman™ Cyclopore™ track‐etched polycarbonate membrane filter (GE Healthcare Life Sciences, #7062‐2513). Imaging of ubi‐AT1.03NL wing discs was performed on an Olympus IX81 microscope equipped with Yokogawa spinning disk (CSU‐W1, Yokogawa) and Ixon Ultra EMCCD camera (Andor). The sensitized emission method was used to measure FRET. Wing discs were excited with a 445 nm laser twice in a sequential manner. Upon first excitation, emission of mse‐CFP was collected using an HQ 480/40 bandpass filter. Upon second excitation, emission of cpVenus‐FRET was collected using an HQ 542/27 filter. The emission of cpVenus‐FRET has contributions from the energy transfer from mse‐CFP and bleed‐through of mse‐CFP into the HQ 542/27 filter. […]
A custom‐written MATLAB (MathWorks) script was used to estimate the FRET efficiency from the fluorescence images. […]
The FRET efficiency (η) was calculated as, η=IFRET/ID+IFRET […]

[3] = tested on: plasma membrane potential of wing discs; test: Membrane potential assay with DiBAC4(3) in wing discs; assay type: cell-based, Drosophila; conditions: wing discs incubated with 1 μM gramicidin A for 30 min at 29°C
Description: To investigate the plasma membrane potential, we used the membrane potential‐sensitive dye DiBAC4(3) (Thermo Fisher Scientific, #B438). Wing discs from up‐crawling third‐instar larvae were dissected in Grace's medium supplemented with 5% FBS and 20 nM 20‐hydroxyecdysone (full medium) (Dye et al, 2017), and incubated with 500 nM DiBAC4(3) in full medium for 15 min at 29°C. After washing twice with full medium, wing discs were mounted and imaged immediately. A higher fluorescence intensity of DiBAC4(3) indicates depolarization of the plasma membrane. […]
Only ring glands and wing discs that were processed in parallel, imaged using the same microscope settings, and properly mounted were used for quantifications. For quantification of immunohistochemical staining of CD8::GFP in ring glands, the mean pixel intensity of two regions of interest of 25 × 25 μm per ring gland was determined using ROI manager, and the average of these was used for the statistical analysis. For quantification of compartment size, wing disc folds served as morphological landmarks to outline the region of the wing pouch and the D/V boundary. The area of dorsal and ventral compartment was then determined using ROI manager. […] The A/P boundary was determined according to anti‐Ci155 or anti‐Ptc co‐immunostaining. […] The mean grey value was measured using ROI manager. […] The integrated density was measured using ROI manager. […]

[4] = tested on: Smo-mEos2 localization to the primary cilium in NIH3T3 cells; test: Smo-mEos2 ciliary localization in NIH3T3/Smo-mEos2 cells (immunofluorescence); assay type: cell-based; conditions: Hh ligands not present
Description: NIH3T3/Smo‐mEos2 cells (Kim et al, 2014) (a gift from P. Beachy, SUSM, Stanford, CA, USA) were grown to confluence on coverslips in DMEM (Thermo Fisher Scientific, #31966021) supplemented with 10% FBS (Thermo Fisher Scientific, #10270106), 1% penicillin/streptomycin (Thermo Fisher Scientific, #15140122) and 1% MEM non‐essential amino acids (Thermo Fisher Scientific, #11140050) at 37°C. For SAG, 3‐BP and 2‐DG treatment, cells were then shifted to serum‐deprived medium containing 0.5% FBS instead of 10% FBS and incubated for 24 h with 100 nM SAG (Merck, #566660), 25 mM of 2‐DG (ROTH, #CN96.3) or 15 μM 3‐BP (Sigma‐Aldrich, #16490‐10G), respectively, or without any compound at 37°C. […]
Only ring glands and wing discs that were processed in parallel, imaged using the same microscope settings, and properly mounted were used for quantifications. For quantification of immunohistochemical staining of CD8::GFP in ring glands, the mean pixel intensity of two regions of interest of 25 × 25 μm per ring gland was determined using ROI manager, and the average of these was used for the statistical analysis. For quantification of compartment size, wing disc folds served as morphological landmarks to outline the region of the wing pouch and the D/V boundary. The area of dorsal and ventral compartment was then determined using ROI manager. […] The mean grey value was measured using ROI manager. […]

## C#CCCCC1(CCCCCCCCC(=O)NCCO)N=N1 [PAC-NAE]
[1]; knock-down of either ecd or Gapdh in the dorsal compartment, 1.5 μM PAC-NAE labelled Lpp particles
  PAC-NAE accumulation in wing disc tissue: autonomously reduced

## CCCCCC[C@H]1C(=O)O[C@H](C)[C@H](NC(=O)c2cccc(NC=O)c2O)C(=O)O[C@@H](C)[C@@H]1OC(=O)CC(C)C [antimycin A]
[2]
  FRET signal of ubi-AT1.03NL (cellular ATP levels): strongly reduced

## gramicidin A
[3]
  Plasma membrane potential (DiBAC4(3) signal intensity): dissipate the plasma membrane potential
[1]; wing discs incubated with 1 μM gramicidin A, compared to control discs
  Uptake of PAC-NAE: strongly reduces

## O=CC[C@@H](O)[C@H](O)[C@H](O)CO [2-DG, 2‐deoxyglucose]
[4]
  Smo-mEos2 accumulation in the primary cilium: accumulates in the primary cilium

## O=C(O)C(=O)CBr [3-BP, 3‐bromopyruvate]
[4]
  Smo-mEos2 accumulation in the primary cilium: accumulates in the primary cilium
